Calls of active or inactive are those of the source. The rule behind the calls is not given here.
Columns and labels:
[1] = Plasma concentration in mouse at 30 mg/kg, po after 120 mins; assay type: ADME, organism-based; design: dose 30 mg/kg, route oral
[2] = Plasma concentration in mouse at 100 mg/kg, po after 120 mins; assay type: ADME, organism-based; design: dose 100 mg/kg, route oral
[3] = biological target: Mitogen-activated protein kinase 14 (Homo sapiens) (UniProt Q16539); test: Inhibition of p38alpha at 10 uM
[4] = Inhibition of PKA at 10 uM
Mus musculus [5] = test: Inhibition of LPS-induced TNFalpha production in mouse at 10 mg/kg, po administered 60 mins before LPS challenge; assay type: functional
[6] = Inhibition of JNK/SAPK1c at 10 uM
Mus musculus [7] = test: Inhibition of LPS-induced TNFalpha production in mouse at 30 mg/kg, po administered 60 mins before LPS challenge; assay type: functional
[8] = biological target: Epidermal growth factor receptor (Homo sapiens, UniProt P00533)
[9] = biological target: Dual specificity tyrosine-phosphorylation-regulated kinase 1A (Homo sapiens) (UniProt Q13627); test: Inhibition of DYRK1a at 10 uM
[10] = biological target: T1, Tyrosine-protein kinase ITK/TSK (Homo sapiens, UniProt Q08881); test: Inhibition of Itk
T1 sequence (Q08881 whole entry): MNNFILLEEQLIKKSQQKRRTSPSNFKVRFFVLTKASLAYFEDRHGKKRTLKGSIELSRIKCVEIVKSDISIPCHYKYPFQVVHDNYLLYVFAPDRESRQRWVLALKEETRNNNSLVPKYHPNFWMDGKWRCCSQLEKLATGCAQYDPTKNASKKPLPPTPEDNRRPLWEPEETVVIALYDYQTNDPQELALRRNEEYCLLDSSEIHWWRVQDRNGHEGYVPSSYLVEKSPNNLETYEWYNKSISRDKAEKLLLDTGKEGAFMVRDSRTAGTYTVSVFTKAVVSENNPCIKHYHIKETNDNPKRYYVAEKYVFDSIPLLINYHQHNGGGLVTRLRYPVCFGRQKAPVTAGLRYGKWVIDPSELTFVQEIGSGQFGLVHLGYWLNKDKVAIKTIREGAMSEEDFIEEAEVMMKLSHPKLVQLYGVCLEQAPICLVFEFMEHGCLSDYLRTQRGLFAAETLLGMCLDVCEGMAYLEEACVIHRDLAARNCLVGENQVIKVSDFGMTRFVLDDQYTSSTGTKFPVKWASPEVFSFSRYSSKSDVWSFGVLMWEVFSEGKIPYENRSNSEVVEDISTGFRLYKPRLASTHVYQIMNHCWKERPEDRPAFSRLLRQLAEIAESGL

[11] = Plasma concentration in mouse at 10 mg/kg, po after 120 mins; assay type: ADME, organism-based; design: dose 10 mg/kg, route oral
[12] = biological target: T2, Mitogen-activated protein kinase 12 (Homo sapiens) (UniProt P53778); test: Inhibition of p38-gamma at 10 uM
T2 sequence (whole entry): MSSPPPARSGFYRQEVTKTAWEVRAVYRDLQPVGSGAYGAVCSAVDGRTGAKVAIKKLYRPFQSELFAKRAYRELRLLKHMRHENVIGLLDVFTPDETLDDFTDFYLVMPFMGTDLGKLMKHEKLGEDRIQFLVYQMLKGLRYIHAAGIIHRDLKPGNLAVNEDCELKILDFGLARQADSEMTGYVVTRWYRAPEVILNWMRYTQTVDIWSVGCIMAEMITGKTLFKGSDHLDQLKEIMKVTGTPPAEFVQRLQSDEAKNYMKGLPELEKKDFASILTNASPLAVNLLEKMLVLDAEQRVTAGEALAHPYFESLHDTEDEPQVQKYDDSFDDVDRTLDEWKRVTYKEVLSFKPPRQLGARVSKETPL

[13] = Inhibition of AMPK at 10 uM
Mus musculus [14] = test: Inhibition of LPS-induced TNFalpha production in mouse at 100 mg/kg, po administered 60 mins before LPS challenge; assay type: functional
[15] = biological target: Glycogen synthase kinase-3 beta (Homo sapiens) (UniProt P49841); test: Inhibition of GSK3-beta at 10 uM
Sequence of Glycogen synthase kinase-3 beta (Homo sapiens) (P49841 whole entry, looked up): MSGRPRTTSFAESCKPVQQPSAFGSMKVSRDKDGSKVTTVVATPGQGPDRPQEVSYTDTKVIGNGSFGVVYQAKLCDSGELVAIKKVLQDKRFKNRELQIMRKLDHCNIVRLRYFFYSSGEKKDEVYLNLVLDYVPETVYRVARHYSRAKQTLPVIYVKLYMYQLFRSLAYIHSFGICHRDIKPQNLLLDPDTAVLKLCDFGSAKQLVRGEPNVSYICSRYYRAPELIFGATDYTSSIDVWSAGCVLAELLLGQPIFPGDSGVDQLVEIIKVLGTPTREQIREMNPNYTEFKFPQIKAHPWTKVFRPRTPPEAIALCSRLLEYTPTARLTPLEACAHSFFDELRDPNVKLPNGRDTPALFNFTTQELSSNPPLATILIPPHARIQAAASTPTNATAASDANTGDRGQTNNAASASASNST

Sequence of Mitogen-activated protein kinase 14 (Homo sapiens) (Q16539 whole entry): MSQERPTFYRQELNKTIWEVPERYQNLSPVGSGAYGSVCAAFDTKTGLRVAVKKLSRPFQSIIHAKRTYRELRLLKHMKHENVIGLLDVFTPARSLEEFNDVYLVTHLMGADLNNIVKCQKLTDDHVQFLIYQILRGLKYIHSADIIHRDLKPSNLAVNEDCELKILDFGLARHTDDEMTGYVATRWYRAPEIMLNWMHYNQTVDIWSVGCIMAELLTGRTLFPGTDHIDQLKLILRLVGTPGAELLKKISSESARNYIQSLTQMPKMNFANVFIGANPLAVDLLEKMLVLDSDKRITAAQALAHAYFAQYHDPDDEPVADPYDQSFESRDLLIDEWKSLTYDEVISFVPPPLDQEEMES
Sequence of Epidermal growth factor receptor (P00533 whole entry): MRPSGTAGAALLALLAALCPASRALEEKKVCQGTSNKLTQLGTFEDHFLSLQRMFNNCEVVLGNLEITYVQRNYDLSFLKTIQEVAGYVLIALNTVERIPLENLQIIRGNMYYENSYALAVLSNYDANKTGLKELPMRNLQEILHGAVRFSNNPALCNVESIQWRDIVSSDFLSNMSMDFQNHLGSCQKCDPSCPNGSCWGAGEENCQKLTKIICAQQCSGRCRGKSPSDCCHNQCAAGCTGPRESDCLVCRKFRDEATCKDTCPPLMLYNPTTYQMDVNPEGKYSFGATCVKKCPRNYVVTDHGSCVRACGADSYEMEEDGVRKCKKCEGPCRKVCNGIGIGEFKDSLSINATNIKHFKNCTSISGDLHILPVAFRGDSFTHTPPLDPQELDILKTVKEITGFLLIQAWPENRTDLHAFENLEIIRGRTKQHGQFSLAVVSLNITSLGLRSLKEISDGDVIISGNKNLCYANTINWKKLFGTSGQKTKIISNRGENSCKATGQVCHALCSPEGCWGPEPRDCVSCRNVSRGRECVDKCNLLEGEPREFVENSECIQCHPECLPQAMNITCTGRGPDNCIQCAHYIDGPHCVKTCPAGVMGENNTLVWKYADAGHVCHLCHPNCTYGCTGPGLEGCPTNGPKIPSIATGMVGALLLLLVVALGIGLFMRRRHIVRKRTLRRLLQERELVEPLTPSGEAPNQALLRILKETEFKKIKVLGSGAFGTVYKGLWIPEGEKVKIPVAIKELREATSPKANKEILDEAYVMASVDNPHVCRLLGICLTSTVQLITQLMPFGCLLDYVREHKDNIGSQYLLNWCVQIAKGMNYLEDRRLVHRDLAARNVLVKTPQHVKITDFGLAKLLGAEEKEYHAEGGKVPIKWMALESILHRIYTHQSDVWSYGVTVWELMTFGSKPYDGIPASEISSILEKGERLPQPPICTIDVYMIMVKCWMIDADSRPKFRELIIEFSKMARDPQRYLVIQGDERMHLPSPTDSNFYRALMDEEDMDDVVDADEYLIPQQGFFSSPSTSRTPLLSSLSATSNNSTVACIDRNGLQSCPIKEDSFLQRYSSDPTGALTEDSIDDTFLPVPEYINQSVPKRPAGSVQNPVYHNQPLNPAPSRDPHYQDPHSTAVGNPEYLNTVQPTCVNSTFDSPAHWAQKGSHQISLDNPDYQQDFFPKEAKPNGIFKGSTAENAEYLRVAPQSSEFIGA

| SMILES | concentration at 2 h [1] | concentration at 2 h [2] | Activity [3] | Activity [4] | inhibition in vivo at 10 mg/kg (Mus musculus [5]) | Activity [6] | inhibition in vivo at 30 mg/kg (Mus musculus [7]) | IC50 [8] | Activity [9] | IC50 [10] | concentration at 2 h [11] | Activity [12] | Activity [13] | inhibition in vivo at 100 mg/kg (Mus musculus [14]) | Activity [15] |
| --- | --- | --- | --- | --- | --- | --- | --- | --- | --- | --- | --- | --- | --- | --- | --- |
| CCCc1cc(N2CCCC(O)C2)nc2sc(C(N)=O)c(N)c12 (configuration not stated) | 3100 nM | 22500 nM | inactive | inactive | 14% | inactive | 67% | > 7 µM | inactive | > 7 µM | 170 nM | inactive | inactive | 93% | inactive |
| CCCc1cc(N2CCC(N)CC2)nc2sc(C(N)=O)c(N)c12 | 20 nM | 2800 nM | inactive | inactive | 17% | inactive | 14% | – | inactive | > 7 µM | < 10 nM | inactive | inactive | 81% | inactive |
| CCCc1cc(N2CCNCC2)nc2sc(C(N)=O)c(N)c12 | < 10 nM | 3500 nM | inactive | inactive | 12% | inactive | 35% | – | inactive | > 7 µM | < 10 nM | inactive | inactive | 74% | inactive |
| CCCc1cc(N2CCC(O)CC2)nc2sc(C(N)=O)c(N)c12 | 15500 nM | 42300 nM | inactive | inactive | 42% | inactive | 94% | – | inactive | > 7 µM | 1600 nM | inactive | inactive | 98% | inactive |
